Source: a melting point compilation (Tetko et al.; mined from patent text by program, amines drawn as free bases though some values may be those of a salt)

Point of comparison: COC(=O)c1cc(C(=O)c2ncc3ccccn23)ccc1NC(=O)c1ccccc1, melting point 218 °C. Against it:
- CC1(C)CCC(C)(C)c2cc(CC#Cc3ccc(C(N)=O)cc3)ccc21 — lower, 207 to 208 °C
- CC(=O)c1c(C)sc2ccnn12 — lower, 130 to 131 °C
- CC1CC2=C(CCC(Cc3ccc(O)cc3)C2)NC1=O (centres undefined) — higher, 230 to 235 °C
- CC1CCCC1(O)c1ccc(C#N)c2ccccc12 (centres undefined) — lower, 121 to 122 °C
- CC(=O)OC1c2ccccc2-c2[nH]c(=O)c(=O)[nH]c21 (centres undefined) — higher, > 300 °C
- COc1ccc(C2(C#Cc3ccnc(N)n3)CCC(=O)CC2)cc1OC1CCCC1 — lower, 68 to 70 °C
- Cc1ccccc1OCC(=O)Nc1c(C)cccc1C(=O)O — lower, 133 to 136 °C
- C[C@H]1CN(C(c2ccccc2)(c2ccccc2)c2ccccc2)CCN1c1ccc(C(F)(F)F)c(Cl)n1 — lower, 210 °C
- C=C1[C@H](O)C[C@H](O[Si](C)(C)C(C)(C)C)[C@H]1CO[Si](C)(C)C(C)(C)C — lower, 64 to 66 °C
- CNc1cc(N2CCOCC2)nc(N2CCOCC2)n1 — lower, 127 to 128 °C
- Cc1ccc(S(=O)(=O)NC(=O)C(c2cc3c(cc2Cl)OCO3)c2cn(C)c3cc(CO)ccc23)cc1 (centres undefined) — lower, 207 to 209 °C
- COC(=C(C#N)C(=O)Nc1ccccc1)c1cccn1C — lower, 121 to 122 °C
- O=C1c2cccc3cccc(c23)C(=O)N1CCCCO — lower, 105 to 108 °C
- CCOC(=O)COc1cc(-c2nn(C)c(C(F)(F)F)c2Cl)c(F)cc1Cl — lower, 130 to 131 °C
- N#Cc1ccc(NC(=N)Nc2ncccc2OCc2ccccc2)cc1 — lower, 173 to 175 °C
- CCCNC(=O)NCc1cccc2c1CN(C1CCC(=O)NC1=O)C2=O (centres undefined) — higher, 298 to 300 °C
- CCOC(=O)c1nnc2ccc(-c3cccs3)cc2c1O — higher, 258 to 260 °C
- CC(C)CN(C[C@H](O)COc1cccc2[nH]c3ccccc3c12)c1ccc(Oc2ccc(C(N)=O)cn2)cc1 — lower, 126 to 142 °C
- CCCOc1cccc(C2(c3cc(C(=O)CC)n(CC)c3)N=C(N)N(C)C2=O)c1 (centres undefined) — lower, 95 °C
- CCCCOC(=O)c1cn(CC)c2nc(N3CCNCC3)c(F)cc2c1=O — lower, 119 to 120 °C
- CC(=O)C1CCC(=O)N1C(C)=O (centres undefined) — lower, 62 °C
- N#CN=C(Nc1cccnc1)NC1CC1 — lower, 171 to 172 °C
- O=S(=O)(Nc1ncnc(Cl)c1-c1ccc(OCc2ccccc2)cc1)c1ccc(Cl)cc1 — higher, 234 to 236 °C
- COc1ccc(C=CC(=O)C2CC2)cc1OC — lower, 89 to 91 °C
- O=C(O)CCc1c(-c2ccccc2)noc1-c1ccccc1 — lower, 152 to 153 °C
- COCCCn1nnnc1-c1cc(-c2ccc(C(F)(F)F)cc2)c(O)cc1O — lower, 98 to 104 °C
- CN1C(=O)CC[C@]2(C)c3ccc(-c4cc5ccccc5s4)cc3CC[C@@H]12 — higher, 247 to 250 °C
- CCCCCCOc1ccc2c(CC#N)c(OCCCCCC)ccc2c1CC#N — lower, 135 to 136 °C
- O=C(CCCCCCCCc1ccccc1)NO — lower, 75 to 77 °C
- CON1C(=O)CC2(CCN(C(=O)CCN3C=CCC(C(N)=O)=C3)CC2)C1=O — lower, 64 to 80 °C
- CN1CCN(c2ccnc3c(NC(=O)c4c(Cl)cccc4Cl)ccc(Cl)c23)C1=O — higher, 259 to 263 °C
- COc1cc2c(cc1OC)NC(=O)CCC2 — lower, 153 to 156 °C
- CC(C)NC(=O)c1nc(-c2ccc(F)cc2)c(-c2ccc(=O)n(C(C)C)n2)s1 — lower, 122 to 124 °C
- Cc1ccccc1C(=O)Nc1ccc(C(=O)N2CCCC(COS(C)(=O)=O)c3ccccc32)cc1 (centres undefined) — lower, 189 to 190 °C
- CC(C)OC(=O)C=Cc1cc(N2C(=O)CC(C(F)(F)F)N(C)C2=O)ccc1Cl (centres undefined) — lower, 200 to 202 °C
- COc1cc2c(cc1OC)CN(CCCc1ccc(NC(=O)c3cnc4ccccc4c3)cc1)CC2 — lower, 184 to 185 °C
- CC(=O)OC1CSC(Oc2ccc(I)nc2F)C(OC(C)=O)C1OC(C)=O (centres undefined) — higher, 234 °C
- CC(C)(C)NC(=O)N1C(=O)[C@H](O)[C@@H]1c1ccccc1 — lower, 148 to 151 °C
- O=C(O)c1ccc(-c2ccc(-c3ccc(C(F)(F)F)cc3)o2)cc1 — higher, 270 to 271 °C
- COC(=O)c1c(Cl)cc(Cl)cc1NC(=O)CSc1ccc(NC(=S)NCc2ccccc2)cc1 — lower, 152 to 155 °C
- CC(C)CC(=O)Nc1cccc(-c2ccnc3c(-c4ccc(-c5ccccc5)cc4)cnn23)c1 — lower, 157 to 160 °C
- COC(=O)Cc1c(O)nc(C)nc1O — not separable, > 200 °C
- CCOC(=O)CSC(C)=NO — lower, 90 to 92 °C
- CN1CCN=C(c2ccccc2)c2cc(C#N)ccc21 — lower, 149 to 150 °C
- COc1ccc(C)cc1NC(=O)Nc1ccc(N2CCN(C(=O)Nc3ccc(C(O)CO)cc3C)CC2)cc1 (centres undefined) — lower, 112 to 113 °C
- Cn1c(=O)c(C(=O)O)c(-c2ccccc2Cl)c2cc(Cl)ccc21 — lower, 197 to 198 °C
- Cc1nnc(-c2ccc3occ(-c4ccc(CS(C)(=O)=O)cc4)c3c2)o1 — higher, 250 to 251 °C
- O=C1C=C(NC(=O)C(=O)c2cn(Cc3ccc4ccccc4c3)c3ccccc23)CO1 — higher, 283 to 285 °C
- NS(=O)(=O)c1ccc(-c2[nH]c3ccc(Cl)cc3c2-c2cccc(Cl)c2)cc1 — higher, 249 to 251 °C
- Cc1ccc(N2CCN(c3cccc(Cl)c3)C2C(Cl)(Cl)Cl)cc1 (centres undefined) — lower, 34 to 36 °C
- ClCCOc1cccc2c1OCCO2 — lower, 73 °C
- COc1ccc(Cc2oc3ccc(OC)cc3c2CC#N)cc1 — lower, 83 °C
- O=C(O)c1cn(CCF)c2c(F)c(F)c(F)cc2c1=O — lower, 208 to 210 °C
- COCCOCOc1ccc2cc(C(=O)O)ccc2c1 — lower, 110 °C
- CC(C)C(C)(C#N)N1C(=O)c2cccc(O)c2C1=O (centres undefined) — lower, 110 to 111 °C
- CN(CCOc1ccc(CC(C(=O)O)S(=O)(=O)c2ccccc2)cc1)c1nc2ccccc2o1 (centres undefined) — lower, 193 to 196 °C
- O=S(=O)(c1ccc(Nc2nccc(Nc3ccc(F)cc3)n2)cc1)N(CCNCC(F)(F)F)C1CCN(Cc2ccccc2)CC1 — lower, 137 to 138 °C
- CCCCC(CC)Cn1c2cc(CO)ccc2c2ccc(CO)cc21 (centres undefined) — lower, 119 to 120 °C
- CCOC(=O)C1=C(C)NC(C)=C(C(=O)OCC)C1c1csc2ccccc12 — lower, 139 to 142 °C
- O=c1oc2c(c(O)c1C(c1ccccc1)C1CC1)CCC2 (centres undefined) — lower, 183 to 185 °C
- CCc1c(-c2ccc(OCc3ccccc3)cc2)c2ccc3c(OC)ccc1n32 — lower, 78 to 81 °C
- COc1ccc2[nH]cc(C#N)c2c1 — lower, 147 °C
- NC(=O)NC1CCC(Cl)CC1 (centres undefined) — lower, 177 to 178 °C
- COc1ccc(C(=O)CCC(=O)N[C@@H](C)C(=O)O)cc1F — lower, 126 to 128 °C
- O=C1CN(CCC(O)C2CCCCC2)C(=O)N1 (centres undefined) — lower, 97 to 99 °C
- COc1ccc(C2=CC(=Nc3c(C)cc(C)cc3C)N(C)CN2)cc1OC — lower, 165 to 166 °C
- Cc1cn(-c2ccc(N)c(C(F)(F)F)c2)c(C)n1 — lower, 126 to 127 °C
- CC(=O)OCC1OC(n2cnc3c(N)ncnc32)CC1O (centres undefined) — lower, 150 to 152 °C
- IC#CCSc1ccncc1 — lower, 140 °C
- CC1=NCN(c2cc(Br)cs2)O1 — lower, 66 to 67 °C
- COC(=O)c1ccc(CC(C)NCC(O)c2ccc(O)c(CO)c2)c(F)c1 (centres undefined) — lower, 97 to 100 °C
- Cc1sc(Nc2cc(F)ccn2)nc1-c1cn[nH]c1 — higher, 283 °C
- NC(=O)c1nc[nH]c1F — higher, 253 to 254 °C
- CCOC(=O)CCc1cccc(C(=O)c2cccc(C(=O)OCC)c2)c1C=CCCCCO — lower, 48 to 50 °C
- O=C(O)CCCc1cc2nc(Cl)ccc2n1S(=O)(=O)c1ccc2c(c1)OCCO2 — lower, 166 °C
- COc1ccc(CCNCCc2ccc(OC)c(OC)c2)cc1OC — lower, 56 to 58 °C
- CC(=O)NCCC[C@H]1NC(=O)[C@@H](Cc2cn(C)c3ccccc23)NC1=O — lower, 138 °C
- CC(C)N1Cc2cc(N)ccc2N(CCCl)S1(=O)=O — lower, 154 to 156 °C
- COC(=O)[C@H](CC(=O)O)NC(=O)c1cccc(NC(=O)c2ccc(C(=N)N)cc2)c1 — higher, 248 to 249 °C
- CC(=NO)NC/C(F)=C\CC[C@H](N)C(=O)O — lower, 198 to 200 °C
- Cc1cn2c(=O)c(C(=O)O)cnc2c2cc(N)ccc12 — higher, > 300 °C
- O=C(O)c1cccc(OC(F)(F)C(F)(F)F)c1 — lower, 131 to 134 °C
- CS(=O)(=O)Nc1ccc(N2CCN(c3cnccc3N)CC2)cc1 — higher, 246 to 248 °C
- CCCCCCC(C)(C)c1ccc(C2=CCCN(CC3CC3)C2)c(O)c1 — lower, 118 °C
- CN(C)c1ccc2nc(N)c(C#N)c(N=Cc3ccccc3)c2c1 — higher, 265 °C
- O=[N+]([O-])c1oc2ccc(CN3CCOCC3)cc2c1-c1ccccc1 — lower, 151 to 154 °C
- Nc1cc2c(cc1N)OCOC2 — lower, 156 to 158 °C
- O=C(NO)c1ccc2c(c1)CN(C(=O)c1ccc3ncccc3c1)C2 — lower, 208 to 210 °C
- Cc1ccc(-c2ncc(C)cn2)cc1 — lower, 122 to 123 °C
- CC(C)(C)C(=O)OCCCCCCOc1ccc(Nc2ccccc2)cc1 — lower, 64 to 65 °C
- CCC(=O)OC1(C(=O)CCl)C(C)CC2C3CCC4CC(=O)CCC4(C)C3(F)C(=O)CC21C (centres undefined) — lower, 184 to 186 °C
- COc1ccc(Sc2ccc(CC(=O)O)cc2)cc1 — lower, 85 to 87 °C
- COC(=O)c1ccc(-c2nc(-c3ccc4c(c3)C(C)(C)CCC4(C)C)no2)cc1 — lower, 166 to 168 °C
- CC(=O)CCc1cc(-c2ccncc2)sc1-c1ccncc1 — lower, 162 to 163 °C
- CCOC(=O)c1c(C)nc(N2CCNCC2)nc1N1CCS(=O)(=O)CC1 — lower, 154 to 159 °C
- CC(C)(Oc1ccc(CCC(=O)c2cc(-c3ccc(C(F)(F)F)cc3)cs2)c(Cl)c1Cl)C(=O)O — lower, 99 to 101 °C
- CCc1nnc(-c2ccc(OC)cc2)n1-c1ccc(OC)cc1 — lower, 122 °C
- C=CCn1c(=S)n(C2OC(CO)C(O)C2O)c2nc(N)[nH]c(=O)c21 (centres undefined) — higher, > 230 °C
- CC1(CCS)C(=O)N2CCCC(C(=O)O)N2C1=O (centres undefined) — lower, 165 to 168 °C
- CCOc1nn(Cc2ccc(OCc3coc(-c4ccccc4)n3)cc2)cc1CCC(=O)O — lower, 135 to 136 °C
- CC(C)(C)c1ncc(O)c(Cl)n1 — lower, 108 °C
- CCOc1cc2c(Nc3cc(OC)c(Cl)cc3Cl)c(C#N)cnc2cc1OCCCC1CCN(C)CC1 — lower, 148 to 151 °C
- COc1cc(CCCC2OC(=O)NC2=O)cc(OC)c1O (centres undefined) — lower, 155 to 156 °C
